# From patent US7193127B1, “Codeinone reductase from alkaloid poppy” (priority 1999, dated 2007)
# “Also recorded” adds a separate entry of the source. Where two headings read alike, the source gives them in different places.
# Experiments:
# [1] = test system: codeinone reductase isoforms; assay type: biochemical, Papaver somniferum; conditions: for serves as substrate in the reductive reaction: NADPH as cofactor, physiologically forward reaction
# Experimental: The two other potential substrates for reduction, the 1,2-dehydroreticulinium ion and salutaridine (FIG. 1), or for the physiologically reverse reaction, salutaridinol and (R)-reticuline, were tested as substrates; with the codeinone reductase isoforms.
# In order to test for a functional evolutionary relationship between isoflavonoid and alkaloid anabolism, codeinone reductase was analyzed for the ability to substitute for the reductase in the formation of 6-deoxychalcone in co-action with either native chalcone synthase or native stilbene synthase from Pinus sylvestris.
# [2] = test system: COc1ccc2c3c1O[C@H]1C(=O)C=C[C@H]4[C@@H](C2)N(C)CC[C@]314; assay: cells, lysate or membranes named
# Experimental: (§1) The four codeinone reductase isoform-calmodulin-binding peptide fusion proteins were purified from E. coli lysates in one step with a calmodulin affinity column.
# (§2) For all isoforms, the temperature optimum for reduction (physiologically forward reaction) was 28° C., for oxidation (physiologically reverse reaction) was 30° C., the pH optimum for reduction was 6.8 and for oxidation was 9.0.
# (§3) For enzyme assays, single colonies were picked and grown in 3 ml Luria-Bertani medium containing 100 μg/ml ampicillin at 37° C. to an OD590 of 0.8. For protein purification, single colonies were picked and grown in 1 l Luria-Bertani medium containing 100 μg/ml ampicillin at 37° C. to an OD590 of 1.8. […] The bacterial pellet from a 3 ml culture was resuspended in 0.5 ml buffer and that from a one liter culture in 100 ml buffer. The cells were ruptured by sonication.
# COR1.2 = COR1.2 (Papaver somniferum, UniProt Q9SQ69); assay: Km determination with purified recombinant codeinone reductase isoform COR1.2
# Experimental: as §1, §2, §3
# COR1.3 = COR1.3 (Papaver somniferum, UniProt Q9SQ68); assay: Km determination with purified recombinant codeinone reductase isoform COR1.3
# Experimental: as §1, §2, §3
# [3] = target: T1, reductase of the 6′-deoxychalcone synthase complex (Glycine max, UniProt P26690); assay: Codeinone/codeine conversion by the reductase of the 6'-deoxychalcone synthase complex; assay type: biochemical, soybean; conditions: in the presence of NADPH
# T1 sequence (P26690 1-315): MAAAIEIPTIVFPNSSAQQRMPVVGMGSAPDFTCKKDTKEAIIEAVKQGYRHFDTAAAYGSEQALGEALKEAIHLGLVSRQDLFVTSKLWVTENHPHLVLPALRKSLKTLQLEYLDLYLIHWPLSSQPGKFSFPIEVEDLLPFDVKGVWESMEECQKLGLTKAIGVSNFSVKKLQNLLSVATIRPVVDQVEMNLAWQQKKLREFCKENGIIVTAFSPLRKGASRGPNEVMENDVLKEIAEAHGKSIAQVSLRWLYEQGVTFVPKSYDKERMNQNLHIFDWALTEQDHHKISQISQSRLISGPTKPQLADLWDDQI
# [4] = analogs and aldo/keto reductase family substrates, direction not given
# [5] = NADP as cofactor, physiologically reverse reaction
# Sequence of COR1.2 (Q9SQ69 whole entry, canonical isoform): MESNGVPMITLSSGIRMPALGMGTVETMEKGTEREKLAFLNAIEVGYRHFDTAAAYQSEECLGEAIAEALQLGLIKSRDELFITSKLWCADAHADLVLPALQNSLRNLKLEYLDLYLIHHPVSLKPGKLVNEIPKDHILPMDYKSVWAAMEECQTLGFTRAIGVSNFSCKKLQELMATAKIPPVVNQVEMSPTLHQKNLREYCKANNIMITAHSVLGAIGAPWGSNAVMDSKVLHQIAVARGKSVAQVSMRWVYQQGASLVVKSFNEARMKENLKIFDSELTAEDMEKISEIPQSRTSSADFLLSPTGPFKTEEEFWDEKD
# Sequence of COR1.3 (Q9SQ68 whole entry, canonical isoform): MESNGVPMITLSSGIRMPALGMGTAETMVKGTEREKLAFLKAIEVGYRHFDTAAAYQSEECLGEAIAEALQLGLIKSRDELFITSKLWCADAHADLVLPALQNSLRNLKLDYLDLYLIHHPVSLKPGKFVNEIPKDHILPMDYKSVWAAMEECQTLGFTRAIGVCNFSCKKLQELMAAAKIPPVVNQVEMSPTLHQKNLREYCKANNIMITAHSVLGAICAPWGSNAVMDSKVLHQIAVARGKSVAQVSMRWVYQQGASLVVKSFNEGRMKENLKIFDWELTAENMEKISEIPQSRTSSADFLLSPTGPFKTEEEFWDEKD
compound,measurement,setting,value
O=C1CCCCC1 [cyclohexanone],transformed by codeinone reductase (tested as substrate),[1]; [4],not transformed
COR1.3 (Papaver somniferum),Km,[2],48 µM
COC1=C[C@]23CCN(C)[C@H](Cc4ccc(OC)c(O)c42)C3=C[C@@H]1O [salutaridinol],serves as substrate in the oxidative reaction,[1]; [5],None of these alkaloids served as substrate
CC(C)CCC[C@@H](C)[C@H]1CC[C@H]2[C@@H]3CC[C@H]4C[C@@H](O)CC[C@]4(C)[C@H]3CC[C@]12C [5α-cholestane-3β-ol],transformed by codeinone reductase (tested as substrate),[1]; [4],not transformed
C[C@]12CCC(=O)C[C@@H]1CC[C@@H]1[C@@H]2CC[C@]2(C)[C@@H](O)CC[C@@H]12 [5α-androstan-17β-ol-3-one],transformed by codeinone reductase (tested as substrate),[1],not transformed
COc1ccc(C[C@@H]2c3cc(O)c(OC)cc3CCN2C)cc1O [(R)-reticuline],serves as substrate in the oxidative reaction,[1]; [5],None of these alkaloids served as substrate
NC(=O)C1=CN([C@@H]2O[C@H](COP(=O)(O)OP(=O)(O)OC[C@H]3O[C@@H](n4cnc5c(N)ncnc54)[C@H](OP(=O)(O)O)[C@@H]3O)[C@@H](O)[C@H]2O)C=CC1 [NADPH],Km,COR1.2,220 µM
"COc1ccc(CC2=[N+](C)CCc3cc(OC)c(O)cc32)cc1O [1,2-dehydroreticulinium ion]",serves as substrate in the reductive reaction,[1],None of these alkaloids served as substrate
O=C1C=CCCC1 [2-cyclohexene-1-one],transformed by codeinone reductase (tested as substrate),[1]; [4],not transformed
NC(=O)c1ccc[n+]([C@@H]2O[C@H](COP(=O)([O-])OP(=O)(O)OC[C@H]3O[C@@H](n4cnc5c(N)ncnc54)[C@H](OP(=O)(O)O)[C@@H]3O)[C@@H](O)[C@H]2O)c1 [NADP],Km,COR1.3,45 µM
same,Km,COR1.2,58 µM
COc1ccc2c3c1O[C@H]1[C@@H](O)CC[C@H]4[C@@H](C2)N(C)CC[C@@]341 [dihydrocodeine],serves as substrate in the oxidative reaction,[1]; [5],functions
O=C[C@H](O)[C@@H](O)[C@H](O)CO [D-xylose],transformed by codeinone reductase (tested as substrate),[1]; [4],not transformed
CCCCC[C@H](O)/C=C/[C@H]1C(=O)C[C@H](O)[C@@H]1CCCCCCC(=O)O [prostaglandin D1],transformed by codeinone reductase (tested as substrate),[1]; [4],not transformed
NC(=O)C1=CN([C@@H]2O[C@H](COP(=O)(O)OP(=O)(O)OC[C@H]3O[C@@H](n4cnc5c(N)ncnc54)[C@H](O)[C@@H]3O)[C@@H](O)[C@H]2O)C=CC1 [NADH],ability to substitute for NADPH as cofactor,[1]; any of the isoforms,could not substitute for NADPH
COR1.2 (Papaver somniferum),Km,[2],62 µM
"COc1ccc(C[C@@H]2NCCc3cc(OC)c(O)cc32)cc1O (mixture of isomers) [(S)-norreticuline, (S) and (R)-norreticuline]",transformed by codeinone reductase (tested as substrate),[1]; [4],inactive
CN1CC[C@]23c4c5ccc(O)c4O[C@H]2C(=O)C=C[C@H]3[C@H]1C5 [morphinone],serves as substrate in the reductive reaction,[1],functions; also recorded: able to reduce
O=P(O)(O)OC[C@@H](O)[C@@H](O)[C@H](O)[C@@H](O)CO [D-Sorbitol-6-phosphate],transformed by codeinone reductase (tested as substrate),[1]; [4],not transformed
"C[C@]12CC[C@H]3[C@@H](CC=C4C[C@@H](O)CC[C@@]43C)[C@@H]1CC[C@@H]2O [5-androstene-3β,17β-diol]",transformed by codeinone reductase (tested as substrate),[1],not transformed
COC1=C[C@]23CCN(C)[C@H](Cc4ccc(OC)c(O)c42)C3=CC1=O [salutaridine],serves as substrate in the reductive reaction,[1],None of these alkaloids served as substrate
COc1ccc2c3c1O[C@H]1C(=O)C=C[C@H]4[C@@H](C2)N(C)CC[C@]314 [codeinone],reduction by the reductase of the 6′-deoxychalcone synthase complex,[3],could neither reduce
COc1ccc(C[C@H]2NCCc3cc(OC)c(O)cc32)cc1O [(R)-norreticuline],transformed by codeinone reductase (tested as substrate),[1]; [4],inactive
COc1ccc2c3c1O[C@H]1C(=O)CC[C@H]4[C@@H](C2)N(C)CC[C@]314 [hydrocodone],serves as substrate in the reductive reaction,[1],functions
CN1CC[C@]23c4c5ccc(O)c4O[C@H]2[C@@H](O)C=C[C@H]3[C@H]1C5 [morphine],serves as substrate in the oxidative reaction,[1],functions
COc1ccc(C[C@H]2c3cc(O)c(OC)cc3CCN2C)cc1O [(S)-reticuline],transformed by codeinone reductase (tested as substrate),[1]; [4],inactive
COc1ccc2c3c1O[C@H]1[C@@H](O)C=C[C@H]4[C@@H](C2)NCC[C@@]341 [norcodeine],transformed by codeinone reductase (tested as substrate),[1],inactive
